Converted amounts (≈) assume the structure as drawn. The source made the active and inactive calls. The calls are words filed in the database; no cut-off is given here.
Experiments:
B16-F10 [1] = assay: Antitumor immunity against mouse B16-F10 cells assessed as release of HMGB1 at 10 nM incubated for 16 hrs followed by irradiated with 54 J/cm^2 light dose and further incubated for 6 hrs by Alexa Fluor 488/Hoechst 33342 staining based confocal laser scanning microscopy; type: functional, cell-based
[2] = Toxicity in C57BL/6 mouse harboring mouse B16-F10 cells assessed as change in body weight at 2 mg/kg, iv irradiated with 60 J/cm^2 laser light measured upto 14 days; type: organism-based; settings: in vivo, 336 h, time <=14 day
B16-F10 [3] = assay: Antitumor activity against mouse B16-F10 cells implanted in C57BL/6 mouse assessed as inhibition of tumor growth at 2 mg/kg, iv irradiated with 60 J/cm^2 laser light by IVIS imaging analysis measured upto 48 hrs; type: functional, organism-based; settings: time hrs <=48
A-375 [4] = assay: Induction of apoptosis in human A-375 cells assessed as total apoptotic cells at 250 nM incubated for 16 hrs followed by irradiated with 54 J/cm^2 light dose by Annexin V-FITC/PI based flow cytometric analysis (reference value: 4.79 %); type: functional
B16-F10 [5] = assay: Induction of apoptosis in mouse B16-F10 cells assessed as early apoptotic cells at 10 nM incubated for 16 hrs followed by irradiated with 54 J/cm^2 light dose by Annexin V-FITC/PI based flow cytometric analysis (reference value: 6.48 %); type: functional
B16-F10 [6] = assay: Induction of apoptosis in mouse B16-F10 cells assessed as viable cells at 10 nM incubated for 16 hrs followed by irradiated with 54 J/cm^2 of light dose by Annexin V-FITC/PI based flow cytometric analysis (reference value: 87.45 %); type: functional; settings: B16-F10, light or radiation study, read-out: Activity
B16-F10 [7] = assay: Induction of apoptosis in mouse B16-F10 cells assessed as viable cells at 50 nM incubated for 16 hrs followed by irradiated with 54 J/cm^2 of light dose by Annexin V-FITC/PI based flow cytometric analysis (reference value: 87.45 %); type: functional; settings: B16-F10, light or radiation study, read-out: Activity
A-375 [8] = assay: Induction of apoptosis in human A-375 cells assessed as total apoptotic cells at 50 nM incubated for 16 hrs followed by irradiated with 54 J/cm^2 light dose by Annexin V-FITC/PI based flow cytometric analysis (reference value: 4.79 %); type: functional
[9] = Biodistribution in heart of C57BL/6 mouse harboring mouse B16-F10 cells at 2 mg/kg, iv measured after 12 hrs by flourescence imaging assay; type: ADME, organism-based; settings: in vivo
A-375 [10] = assay: Induction of ROS generation in human A-375 cells assessed as cells with high intracellular ROS levels at 10 nM incubated for 16 hrs followed by irradiated with 54 J/cm2 light dose by H2DCFDA fluorescent probe based flow cytometry method (reference value: 2.09 %); type: functional
B16-F10 [11] = assay: Photodynamic therapy in mouse B16-F10 cells implanted in C57BL/6 mouse model assessed as increase in infiltration of CD8+ T cells by APC/FITC/PE staining based flow cytometric analysis (reference value: 3.68 %); type: functional
A-375 [12] = assay: Induction of ROS generation in human A-375 cells assessed as cells with high intracellular ROS levels at 100 nM incubated for 16 hrs followed by irradiated with 54 J/cm2 light dose by H2DCFDA fluorescent probe based flow cytometry method (reference value: 2.09 %); type: functional
[13] = Biodistribution in whole body of C57BL/6 mouse harboring B16-F10 cells at 2 mg/kg, iv measured after 12 hrs by flourescence imaging assay; type: ADME, organism-based; settings: in vivo
[14] = Drug elimination in C57BL/6 mouse harboring B16-F10 cells at 2 mg/kg, iv measured after 48 hrs by fluorescence imaging assay; type: ADME, organism-based; settings: in vivo
[15] = Drug localisation in endoplasmic reticulum of human A-375 cells at 5 uM incubated for 16 hrs by ER Tracker Green based confocal laser scanning microscopy analysis; type: ADME, subcellular; settings: a-375, 16 h
[16] = Drug localisation in mitochondria of human A-375 cells at 5 uM incubated for 16 hrs by Mito Tracker Green FM based confocal laser scanning microscopy analysis; type: ADME; settings: a-375, 16 h
B16-F10 [17] = assay: Induction of apoptosis in mouse B16-F10 cells assessed as necrotic cells at 250 nM incubated for 16 hrs followed by irradiated with 54 J/cm^2 light dose by Annexin V-FITC/PI based flow cytometric analysis (reference value: 3.75 %); type: functional
[18] = Aqueous solubility in PBS; type: physicochemical; settings: buffer
[19] = Phototoxicity against human A-375 cells assessed as reduction in cell viability incubated for 16 hrs followed by irradiated with 54 J/cm^2 of light dose and further incubated for 24 hrs by CCK-8 assay; type: toxicity, cell-based; settings: A-375, light or radiation study
[20] = Drug localisation in mitochondria of mouse B16-F10 cells at 5 uM incubated for 16 hrs by Mito Tracker Green FM based confocal laser scanning microscopy analysis; type: ADME; settings: b16-f10, 16 h
[21] = Drug localisation in endoplasmic reticulum of mouse B16-F10 cells at 5 uM incubated for 16 hrs by ER Tracker Green based confocal laser scanning microscopy analysis; type: ADME, subcellular; settings: b16-f10, 16 h
B16-F10 [22] = assay: Induction of apoptosis in mouse B16-F10 cells assessed as necrotic cells at 50 nM incubated for 16 hrs followed by irradiated with 54 J/cm^2 light dose by Annexin V-FITC/PI based flow cytometric analysis (reference value: 3.75 %); type: functional
B16-F10 [23] = assay: Induction of ROS generation in mouse B16-F10 cells assessed as cells with high intracellular ROS levels at 100 nM incubated for 16 hrs followed by irradiated with 54 J/cm^2 of light dose by H2DCFDA fluorescent probe based flow cytometry method (reference value: 1.96 %); type: functional
B16-F10 [24] = assay: Antitumor immunity against mouse B16-F10 cells assessed as release of HMGB1 at 250 nM incubated for 16 hrs followed by irradiated with 54 J/cm^2 light dose and further incubated for 6 hrs by Alexa Fluor 488/Hoechst 33342 staining based confocal laser scanning microscopy; type: functional, cell-based
[25] = Biodistribution in lungs of C57BL/6 mouse harboring mouse B16-F10 cells at 2 mg/kg, iv measured after 12 hrs by flourescence imaging assay; type: ADME, organism-based, Lung; settings: in vivo
[26] = Lipophilicity, logP of compound; type: physicochemical; settings: octanol/water
[27] = Biodistribution in liver of C57BL/6 mouse harboring mouse B16-F10 cells at 2 mg/kg, iv measured after 12 hrs by flourescence imaging assay; type: ADME, organism-based; settings: in vivo
A-375 [28] = assay: Dark toxicity against human A-375 cells assessed as reduction in cell viability incubated for 16 hrs by CCK-8 assay; type: functional, cell-based; settings: A-375, 16 h
B16-F10 [29] = assay: Antitumor immunity against mouse B16-F10 cells assessed as surface translocation of CRT at 50 nM incubated for 16 hrs followed by irradiated with 54 J/cm^2 light dose and further incubated for 6 hrs by Alexa Fluor 488/Hoechst 33342 staining based confocal laser scanning microscopy; type: functional, cell-based
B16-F10 [30] = assay: Dark toxicity against mouse B16-F10 cells assessed as reduction in cell viability incubated for 16 hrs by CCK-8 assay; type: cell-based; settings: B16-F10, 16 h
B16-F10 [31] = assay: Antitumor immunity against mouse B16-F10 cells assessed as release of HMGB1 at 50 nM incubated for 16 hrs followed by irradiated with 54 J/cm^2 light dose and further incubated for 6 hrs by Alexa Fluor 488/Hoechst 33342 staining based confocal laser scanning microscopy; type: functional, cell-based

## COc1ccc(C2=[N+]3C(=Nc4c(-c5ccccc5)c5c(n4[B-]3(F)F)-c3ccc(OCC(=O)N[C@@H](CC(=O)O)C(=O)O)cc3CC5)C(c3ccccc3)=C2I)cc1
B16-F10 [1]
  Activity: inactive
[2]
  Activity: Non-Toxic
B16-F10 [3]
  Activity: Active
A-375 [4]
  Activity: 93.81%
B16-F10 [5]
  Activity: 2.93%
B16-F10 [6]
  viability at 0.01 µM: 88.9%
B16-F10 [7]
  viability at 0.05 µM: 41.9%
A-375 [8]
  Activity: 66.46%
[9]
  Drug uptake: Active
A-375 [10]
  Activity: 2.48%
B16-F10 [11]
  Activity: 7.98%
A-375 [12]
  Activity: 53.15%
[13]
  Drug uptake: Active
[14]
  Drug excretion: Active
[15]
  Drug uptake: Active
[16]
  Drug uptake: Active
B16-F10 [17]
  Activity: 0.29%
[18]
  solubility: 165 µM (≈ 144 µg/mL)
[19]
  IC50: 81 nM
[20]
  Drug uptake: Active
[21]
  Drug uptake: Active
B16-F10 [22]
  Activity: 3.51%
B16-F10 [23]
  Activity: 70.29%
B16-F10 [24]
  Activity: inactive
[25]
  Drug uptake: Active
[26]
  logP: -0.77
[27]
  Drug uptake: Active
A-375 [28]
  IC50: > 250 µM
B16-F10 [29]
  Activity: Active
B16-F10 [30]
  IC50: > 250 µM
B16-F10 [31]
  Activity: Active

— ChEMBL document CHEMBL5038667, “Discovery of an Amino Acid-Modified Near-Infrared Aza-BODIPY Photosensitizer as an Immune Initiator for Potent Photodynamic Therapy in Melanoma” (J Med Chem, 2022)
